Data as given in patent US20190290623A1, “USE OF TIOTROPIUM BROMIDE TO PREVENT PULMONARY OXYGEN TOXICITY” (priority 2018, published 2019).
Entries after “also recorded” stand apart in the source; their conditions may differ.

Columns and labels:
Assay type in all cases: in vivo
[1] = tested on: swine exposed to 2.5 ATA hyperbaric oxygen for 5.5 hr; assay: Experiment 2 deep exposure simulation: pulmonary capacity (pressure-volume loops); conditions: 2.5 ATA O2 5.5 hr
Experimental: (§1) Experiment 2 is designed to evaluate the efficacy of tiotropium bromide pre-dive with respect to reducing decrements in pulmonary function due to PO2T following a 5.5 hour, 2.5 ATA hyperbaric oxygen exposure. This dive profile was selected because it caused the most significant pulmonary function deficits in humans with minimal risk of seizure due to CNS oxygen toxicity.
Pulmonary function testing: The swine had disposable prewired electrodes adhered to the dermis over the gluteal muscle and a train of four (TOF) stimulation was initiated to confirm proper placement and twitch using a DigiStim III Peripheral Nerve Stimulator (Neuro Technology Inc., Kerrville, Tex.). Atracurium besylate (50 mg, IV) (hospira, Lake Forest, Ill.) was injected into the ear vein catheter, and the swine was observed until cessation of muscle twitch with TOFs. The swine was then disconnected from the ventilator circuit, allowed to passively exhale, and connected to an O2 filled 3 L super syringe (Hamilton Company, Reno, Nev.) attached to a pressure gauge (OMEGA®, Norwalk, Conn.), and pneumotachometer (Harvard Apparatus, Holliston, Mass.). Oxygen was introduced in 100 ml increments every 3 seconds until a static pressure of 40 cm H2O was reached. The lungs were then deflated in 100 ml increments until a static pressure of −40 cm H2O. The swine was then reconnected to the ventilator and ventilated for 2 minutes before repeating the insufflation and exhalation maneuvers and measurements one more time. […] After the above measurements, swine received either nebulized Tiotropium (18 μg dissolved in saline) or an equal volume of 0.9% saline through the breathing circuit over the course of 15 minutes. The propofol infusion was then stopped, the animals were then monitored until a swallow reflex was observed then extubated. The swine were then transported to the hyperbaric chamber suite and allowed to recover until capable of standing.
(§2) Hyperbaric Exposures: Individual animals were then placed into a Plexiglas box (30 in.×42 in.×38 in., manufactured in-house) within a Multiple Large Animal Chamber (MLAC), which is a steel-hulled hyperbaric chamber (450-cubic ft. floodable volume and pressure tested to 1,230 feet of seawater [fsw] equivalent) (Bethlehem Steel Corp, Bethlehem Pa.). Pressure/depth was monitored by a CPG 2500 Digital Pressure Gauge (Mensor Corp., San Marcos, Tex.). Swine were dove in pairs with each treatment group represented. Swine box assignment was alternated with respect to treatment to avoid any effects associated with individual box environmental features. Animals were monitored via closed-circuit television to observe signs of distress related to middle ear barotrauma (e.g. head shaking, nystagmus) and seizure activity. Oxygen concentration was measured and recorded using a portable O2 analyzer (Teledyne Analytical Inst, City of Industry, Calif.). After positioning the animal inside the Plexiglas box, the MLAC was sealed and pressurized using air at the rate of I ATA/minute to a depth of 2.5 ATA. After 2.5 min at a bottom depth equivalent to 2.5 ATA, the breathing gas was switched to 100% O2 and maintained for 5.5 Hrs. After completing 5.5 Hrs on 100% O2, the inspired gas was switched back to air for 3 min. Then, the chamber was decompressed at 1 ATA/minute. Upon reaching surface the animal was transported to the surgical suite for post-dive ECG and pulmonary function measurements (identical to the pre-dive procedures). The animal was then euthanized via ear vein infusion of Euthasol (1.0-1.5 ml/10 lbs body weight) followed by a saline flush (5 cc).
Pulmonary function data analysis: Pressure and flow data from the pressure gauge and pneumotachometer respectively were collected by a Dell Laptop (Round Rock, Tex.) and an analog-digital converter card (PCI-6052E, National Instruments, Austin, Tex.) with 16 bit resolution and 200 Hz sampling rate running Labchart 8.0. […]

[2] = tested on: swine exposed to 1.5 ATA hyperbaric oxygen for 17.5 hr; assay: Experiment 1 shallow exposure simulation: Impulse Oscillometry (IOS); conditions: 1.5 ATA O2 17.5 hr, 18 mcg nebulized pre-dive, post-dive normalized to baseline, n=7/arm
Experimental: Experiment 1 is designed to evaluate the efficacy of tiotropium bromide administered pre-dive in reducing decrements in pulmonary function due to PO2T following a 17.5 hour, 1.5 ATA hyperbaric oxygen exposure. This dive profile was selected because it was of sufficient duration to elicit persistent pulmonary function decrement in humans.
The swine were anesthetized with propofol (20 cc, I.V. target, adjusted as needed to optimize sedation), intubated and ventilated. Anesthetized swine were shaved, then ECG and EEG electrodes were placed. Animals were then paralyzed with Atracurium Besylate (50 mg, IV) for accurate pulmonary function measurements of quasi-static and dynamic compliance.
Following baseline pulmonary function measurements, the swine were randomized to receive equivalent volumes of normal saline or tiotropium bromide (18 mcg) via nebulizer. The swine were then ventilated until muscle tone was regained. […]
Next, the swine were switched to 100% oxygen breathing gas and remained at 1.5 ATA for 17.5 hr. […] When fully sedated, the swine were ventilated, paralyzed with Atracurium Besylate, and post-dive measurements of pulmonary function were recorded. During all phases of study the swine were continuously monitored for signs of seizure or distress. […]

[3] = tested on: swine exposed to 2.5 ATA hyperbaric oxygen for 5.5 hr; assay: Experiment 2 deep exposure simulation: Impulse Oscillometry (IOS); conditions: 2.5 ATA O2 5.5 hr, post-dive normalized to baseline, n=6/arm
Experimental: as §1
Hyperbaric Exposures: Individual animals were then placed into a Plexiglas box (30 in.×42 in.×38 in., manufactured in-house) within a Multiple Large Animal Chamber (MLAC), which is a steel-hulled hyperbaric chamber (450-cubic ft. floodable volume and pressure tested to 1,230 feet of seawater [fsw] equivalent) (Bethlehem Steel Corp, Bethlehem Pa.). Pressure/depth was monitored by a CPG 2500 Digital Pressure Gauge (Mensor Corp., San Marcos, Tex.). Swine were dove in pairs with each treatment group represented. Swine box assignment was alternated with respect to treatment to avoid any effects associated with individual box environmental features. Animals were monitored via closed-circuit television to observe signs of distress related to middle ear barotrauma (e.g. head shaking, nystagmus) and seizure activity. Oxygen concentration was measured and recorded using a portable O2 analyzer (Teledyne Analytical Inst, City of Industry, Calif.). […]

[4] = tested on: swine exposed to 2.5 ATA hyperbaric oxygen for 5.5 hr; assay: Experiment 2: adverse reactions / seizure observation; conditions: 2.5 ATA oxygen exposure
Source text: as §2, with “Upon reaching surface the animal was transported to the surgical suite for post-dive ECG and pulmonary function measurements (identical to the pre-dive procedures). The animal was then euthanized via ear vein infusion of Euthasol (1.0-1.5 ml/10 lbs body weight) followed by a saline flush (5 cc).” left out

## C[N+]1(C)[C@@H]2C[C@@H](OC(=O)C(O)(c3cccs3)c3cccs3)C[C@H]1[C@@H]1O[C@@H]12 [Tiotropium, tiotropium bromide]
[1]; 1st set of measurements
  change in VC following hyperbaric exposure: no change
[1]; 1st set of measurements, n=7, p=0.2217, mean ± SEM
  decrease in IC following hyperbaric exposure: 57.14 ± 34.11 mL
[1]; 1st set of measurements, n=7, p=0.6315, mean ± SEM
  increase in ERV following hyperbaric exposure: 57.14+62.65 ml
[1]; 2nd set of measurements, n=9, mean ± SEM
  increase in VC following hyperbaric exposure: 22.22+52.69 ml
[1]; 2nd set of measurements, n=9, p=0.4806, mean ± SEM
  increase in ERV following hyperbaric exposure: 44.44 ± 39.49 mL
[1]; 2nd set of measurements, n=9, p=0.5300, mean ± SEM
  decrease in IC following hyperbaric exposure: 33.33 ± 31.94 mL
[1]; percent change from baseline, averaged, p=0.266
  Inspiratory capacity, Saline vs Tiotropium groups: no significant differences
[1]; percent change from baseline, averaged, p=0.325
  Vital Capacity, Saline vs Tiotropium groups: no significant differences
[1]; percent change from baseline, averaged, p=0.900
  Expiratory Reserve Volume, Saline vs Tiotropium groups: no significant differences
[2]; p=0.172
  IOS resistance, Tiotropium treated animals vs saline controls: no significant differences
[2]; p=0.65
  IOS reactance, Tiotropium treated animals vs saline controls: no significant differences
[3]; all frequencies, p=0.0421
  IOS resistance in saline treated controls when compared to Tiotropium treated swine: significant decrease in resistance
[3]; p=0.0587
  IOS reactance in saline treated controls when compared to Tiotropium treated swine: decrease in reactance which approached significance; also recorded: decrease in reactance, which approached significance
[4]
  adverse reactions (including seizure): no adverse reactions
